According to ChEMBL document CHEMBL5212743, “Selectivity Literature for EUbOPEN Chemogenomics Library wave 3” (2023):
Each block holds one compound with its values, some of them ahead of it.

Legend:
Kallikrein-4 = Kallikrein-4 (Homo sapiens, UniProt Q9Y5K2); assay: Selectivity interaction (Serine protease panel) EUB0000735a KLK4
[1] = molecular target: cGMP-dependent protein kinase 1 (Homo sapiens) (UniProt Q13976); assay: Selectivity interaction (KinomeScan (DiscoverX)) EUB0000735a PRKG1; conditions: at 1 µM
Kallikrein-1 = Kallikrein-1 (Homo sapiens, UniProt P06870); assay: Selectivity interaction (Serine protease panel) EUB0000735a KLK1
Coagulation factor XI = Coagulation factor XI (Homo sapiens, UniProt P03951); assay: Selectivity interaction (Serine protease panel) EUB0000735a F11
Serine protease 1 = Serine protease 1 (Homo sapiens, UniProt P07477); assay: Selectivity interaction (Serine protease panel) EUB0000735a PRSS1
Chain of Serine protease 1 (P07477 whole entry): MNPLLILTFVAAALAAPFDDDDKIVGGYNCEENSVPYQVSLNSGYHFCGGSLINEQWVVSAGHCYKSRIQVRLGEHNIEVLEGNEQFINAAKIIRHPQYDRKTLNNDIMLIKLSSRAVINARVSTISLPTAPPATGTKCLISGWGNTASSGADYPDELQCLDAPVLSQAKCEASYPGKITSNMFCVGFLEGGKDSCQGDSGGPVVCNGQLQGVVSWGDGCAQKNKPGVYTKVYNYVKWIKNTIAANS

Plasma kallikrein = Plasma kallikrein (Homo sapiens, UniProt P03952); assay: Selectivity interaction (Serine protease panel) EUB0000735a KLKB1
Cathepsin G = Cathepsin G (Homo sapiens, UniProt P08311); assay: Selectivity interaction (Serine protease panel) EUB0000735a CTSG
Coagulation factor VII = Coagulation factor VII (Homo sapiens, UniProt P08709); assay: Selectivity interaction (Serine protease panel) EUB0000735a F7
Chain of Coagulation factor VII (P08709 61-212 limits assumed): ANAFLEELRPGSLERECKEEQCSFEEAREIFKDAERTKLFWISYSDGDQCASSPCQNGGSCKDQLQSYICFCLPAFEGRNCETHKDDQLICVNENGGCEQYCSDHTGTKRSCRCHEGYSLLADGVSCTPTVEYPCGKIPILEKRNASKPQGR
Chain of Coagulation factor VII (P08709 213-466 limits assumed): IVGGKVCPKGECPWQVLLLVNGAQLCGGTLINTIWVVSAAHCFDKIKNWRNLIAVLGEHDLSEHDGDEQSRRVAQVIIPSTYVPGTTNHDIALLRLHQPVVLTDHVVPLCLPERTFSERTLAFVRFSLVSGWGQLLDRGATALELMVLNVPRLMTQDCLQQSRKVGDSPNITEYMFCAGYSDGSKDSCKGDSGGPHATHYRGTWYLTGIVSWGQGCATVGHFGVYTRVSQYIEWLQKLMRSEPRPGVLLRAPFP

Dipeptidyl peptidase 4 = Dipeptidyl peptidase 4 (Homo sapiens, UniProt P27487); assay: Selectivity interaction (Serine protease panel) EUB0000735a DPP4
Kallikrein-12 = Kallikrein-12 (Homo sapiens, UniProt Q9UKR0); assay: Selectivity interaction (Serine protease panel) EUB0000735a KLK12
Chymotrypsin-C = Chymotrypsin-C (Homo sapiens, UniProt Q99895); assay: Selectivity interaction (Serine protease panel) EUB0000735a CTRC
Kallikrein-5 = Kallikrein-5 (Homo sapiens, UniProt Q9Y337); assay: Selectivity interaction (Serine protease panel) EUB0000735a KLK5
Chain of Kallikrein-5 (Q9Y337 whole entry): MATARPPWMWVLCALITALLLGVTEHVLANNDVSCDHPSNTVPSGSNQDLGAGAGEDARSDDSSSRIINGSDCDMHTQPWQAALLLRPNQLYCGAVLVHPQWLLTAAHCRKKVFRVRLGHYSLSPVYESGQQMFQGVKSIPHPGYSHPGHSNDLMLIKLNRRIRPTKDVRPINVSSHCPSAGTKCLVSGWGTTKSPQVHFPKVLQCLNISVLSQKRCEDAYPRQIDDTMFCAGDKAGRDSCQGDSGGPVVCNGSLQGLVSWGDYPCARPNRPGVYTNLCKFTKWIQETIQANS

Prolyl endopeptidase FAP = Prolyl endopeptidase FAP (Homo sapiens, UniProt Q12884); assay: Selectivity interaction (Serine protease panel) EUB0000735a FAP
Chain of Prolyl endopeptidase FAP (Q12884 whole entry): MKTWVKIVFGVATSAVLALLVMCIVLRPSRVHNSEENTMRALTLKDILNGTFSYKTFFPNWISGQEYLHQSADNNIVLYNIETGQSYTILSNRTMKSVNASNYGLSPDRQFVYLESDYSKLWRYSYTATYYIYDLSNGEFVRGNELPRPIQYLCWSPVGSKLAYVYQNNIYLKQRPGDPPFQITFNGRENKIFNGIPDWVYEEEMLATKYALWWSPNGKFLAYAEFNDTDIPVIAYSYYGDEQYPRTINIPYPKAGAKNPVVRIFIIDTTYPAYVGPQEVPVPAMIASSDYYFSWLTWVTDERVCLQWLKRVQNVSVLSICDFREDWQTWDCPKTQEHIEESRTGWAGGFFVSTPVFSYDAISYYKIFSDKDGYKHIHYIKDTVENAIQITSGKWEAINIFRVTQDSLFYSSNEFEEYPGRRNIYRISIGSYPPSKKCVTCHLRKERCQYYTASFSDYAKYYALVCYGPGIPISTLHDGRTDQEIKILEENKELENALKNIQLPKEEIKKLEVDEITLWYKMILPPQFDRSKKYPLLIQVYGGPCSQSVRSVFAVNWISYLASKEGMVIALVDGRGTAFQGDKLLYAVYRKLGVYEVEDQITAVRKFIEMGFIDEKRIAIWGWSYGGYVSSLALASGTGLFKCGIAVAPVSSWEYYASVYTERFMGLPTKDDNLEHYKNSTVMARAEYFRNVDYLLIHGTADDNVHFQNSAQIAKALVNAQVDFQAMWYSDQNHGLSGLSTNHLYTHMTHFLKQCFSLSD

Plasminogen = Plasminogen (Homo sapiens, UniProt P00747); assay: Selectivity interaction (Serine protease panel) EUB0000735a PLG
Chymase = Chymase (Homo sapiens, UniProt P23946); assay: Selectivity interaction (Serine protease panel) EUB0000735a CMA1
[2] = molecular target: cAMP-dependent protein kinase catalytic subunit beta (Homo sapiens) (UniProt P22694); assay: Selectivity interaction (KinomeScan (DiscoverX)) EUB0000735a PRKACB; conditions: at 1 µM
Dipeptidyl peptidase 2 = Dipeptidyl peptidase 2 (Homo sapiens, UniProt Q9UHL4); assay: Selectivity interaction (Serine protease panel) EUB0000735a DPP7
[3] = molecular target: Chymotrypsin-like elastase family member 1 (Homo sapiens, UniProt Q9UNI1); assay: Selectivity interaction (Serine protease panel) EUB0000735a CELA1
Chain of Chymotrypsin-like elastase family member 1 (Q9UNI1 whole entry): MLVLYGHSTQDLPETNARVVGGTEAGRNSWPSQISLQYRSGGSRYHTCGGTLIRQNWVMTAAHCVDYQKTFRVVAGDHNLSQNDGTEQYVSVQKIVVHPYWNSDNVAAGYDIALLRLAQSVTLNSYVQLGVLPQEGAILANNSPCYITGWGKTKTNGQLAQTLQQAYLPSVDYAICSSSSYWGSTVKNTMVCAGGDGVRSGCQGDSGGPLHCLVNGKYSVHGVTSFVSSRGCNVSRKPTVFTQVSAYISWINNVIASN

Coagulation factor IX = Coagulation factor IX (Homo sapiens, UniProt P00740); assay: Selectivity interaction (Serine protease panel) EUB0000735a F9
Chain of Coagulation factor IX (P00740 47-191 limits assumed): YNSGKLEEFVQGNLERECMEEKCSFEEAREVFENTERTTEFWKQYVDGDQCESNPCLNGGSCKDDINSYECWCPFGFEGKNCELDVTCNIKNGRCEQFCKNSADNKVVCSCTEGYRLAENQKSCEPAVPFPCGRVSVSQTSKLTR
Chain of Coagulation factor IX (P00740 227-461 limits assumed): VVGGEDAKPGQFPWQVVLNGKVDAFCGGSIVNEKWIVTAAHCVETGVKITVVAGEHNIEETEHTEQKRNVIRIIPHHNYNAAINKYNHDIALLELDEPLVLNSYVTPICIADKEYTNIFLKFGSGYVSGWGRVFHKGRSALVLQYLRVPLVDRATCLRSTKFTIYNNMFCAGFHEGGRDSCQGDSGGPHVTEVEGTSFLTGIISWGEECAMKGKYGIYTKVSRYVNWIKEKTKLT

Kallikrein-7 = Kallikrein-7 (Homo sapiens, UniProt P49862); assay: Selectivity interaction (Serine protease panel) EUB0000735a KLK7
[4] = molecular target: T1, Gamma-aminobutyric acid receptor subunit alpha-1 (Homo sapiens, UniProt P14867); assay: Selectivity interaction (GPCR panel (PDSP screen)) EUB0000302b GABRA1
T1 sequence (P14867 whole entry): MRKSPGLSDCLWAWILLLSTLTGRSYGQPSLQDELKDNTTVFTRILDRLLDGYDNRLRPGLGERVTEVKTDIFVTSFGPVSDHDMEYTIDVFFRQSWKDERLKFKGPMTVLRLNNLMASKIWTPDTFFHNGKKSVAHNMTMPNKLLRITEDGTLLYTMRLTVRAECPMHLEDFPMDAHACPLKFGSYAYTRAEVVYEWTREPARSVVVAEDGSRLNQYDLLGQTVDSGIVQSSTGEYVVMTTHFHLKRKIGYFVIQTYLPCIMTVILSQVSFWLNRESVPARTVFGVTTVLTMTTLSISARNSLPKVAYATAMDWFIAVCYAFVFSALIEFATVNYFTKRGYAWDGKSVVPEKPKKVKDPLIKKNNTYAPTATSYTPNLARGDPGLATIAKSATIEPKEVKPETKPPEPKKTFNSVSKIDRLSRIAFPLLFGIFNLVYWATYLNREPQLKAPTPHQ

Collagenase 3 = Collagenase 3 (Homo sapiens, UniProt P45452); assay: Selectivity interaction (MMPs panel (Panlabs panel, Bayer)) EUB0000725a MMP13
Neutrophil collagenase = Neutrophil collagenase (Homo sapiens, UniProt P22894); assay: Selectivity interaction (MMPs panel (Panlabs panel, Bayer)) EUB0000725a MMP8
Chain of Neutrophil collagenase (P22894 whole entry, canonical isoform): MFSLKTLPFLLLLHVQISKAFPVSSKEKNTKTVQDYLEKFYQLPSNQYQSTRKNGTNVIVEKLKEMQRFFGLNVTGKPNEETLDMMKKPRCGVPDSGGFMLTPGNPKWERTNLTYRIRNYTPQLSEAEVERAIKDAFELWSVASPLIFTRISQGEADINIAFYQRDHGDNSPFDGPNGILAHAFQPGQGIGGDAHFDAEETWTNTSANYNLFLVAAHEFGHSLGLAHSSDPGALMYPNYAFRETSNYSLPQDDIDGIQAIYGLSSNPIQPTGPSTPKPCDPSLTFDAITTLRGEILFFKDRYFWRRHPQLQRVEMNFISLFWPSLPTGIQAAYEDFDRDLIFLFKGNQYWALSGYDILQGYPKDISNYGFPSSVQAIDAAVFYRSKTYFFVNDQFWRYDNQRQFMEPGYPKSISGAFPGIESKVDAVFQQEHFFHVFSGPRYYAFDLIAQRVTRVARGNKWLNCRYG

[5] = molecular target: Phosphatidylinositol 4,5-bisphosphate 3-kinase catalytic subunit alpha isoform (Homo sapiens, UniProt P42336); assay: Selectivity interaction (KinomeScan (DiscoverX)) EUB0000725a PIK3CA; conditions: at 10 µM
[6] = molecular target: Matrix metalloproteinase-9 (Homo sapiens, UniProt P14780); assay: Selectivity interaction (MMPs panel (Panlabs panel, Bayer)) EUB0000725a MMP9
Matrilysin = molecular target: T2, Matrilysin (Homo sapiens, UniProt P09237); assay: Selectivity interaction (MMPs panel (Panlabs panel, Bayer)) EUB0000725a MMP7
T2 sequence (P09237 whole entry): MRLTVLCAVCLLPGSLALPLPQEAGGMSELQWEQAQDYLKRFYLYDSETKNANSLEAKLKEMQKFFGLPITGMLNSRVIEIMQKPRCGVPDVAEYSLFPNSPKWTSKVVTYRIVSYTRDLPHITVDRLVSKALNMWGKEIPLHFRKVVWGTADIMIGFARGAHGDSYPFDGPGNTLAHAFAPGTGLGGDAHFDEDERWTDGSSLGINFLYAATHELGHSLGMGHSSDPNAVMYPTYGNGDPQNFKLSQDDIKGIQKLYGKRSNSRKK

[7] = molecular target: Matrix metalloproteinase-14 (Homo sapiens, UniProt P50281); assay: Selectivity interaction (MMPs panel (Panlabs panel, Bayer)) EUB0000725a MMP14
Interstitial collagenase = Interstitial collagenase (Homo sapiens, UniProt P03956); assay: Selectivity interaction (MMPs panel (Panlabs panel, Bayer)) EUB0000725a MMP1
Chain of Interstitial collagenase (P03956 whole entry): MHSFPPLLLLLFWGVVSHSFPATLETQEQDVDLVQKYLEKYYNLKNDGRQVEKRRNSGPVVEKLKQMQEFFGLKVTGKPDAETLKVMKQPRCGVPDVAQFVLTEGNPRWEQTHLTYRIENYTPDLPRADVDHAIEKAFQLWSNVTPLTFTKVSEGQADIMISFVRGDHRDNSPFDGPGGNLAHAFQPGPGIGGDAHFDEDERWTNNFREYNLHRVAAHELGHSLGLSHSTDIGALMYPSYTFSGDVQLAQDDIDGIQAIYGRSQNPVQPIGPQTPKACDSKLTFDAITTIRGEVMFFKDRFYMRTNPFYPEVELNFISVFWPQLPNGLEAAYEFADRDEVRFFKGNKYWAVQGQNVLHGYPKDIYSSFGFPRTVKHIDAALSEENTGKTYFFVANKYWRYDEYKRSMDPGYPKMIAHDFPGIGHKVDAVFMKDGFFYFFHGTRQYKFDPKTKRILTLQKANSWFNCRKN

[8] = molecular target: Macrophage metalloelastase (Homo sapiens, UniProt P39900); assay: Selectivity interaction (MMPs panel (Panlabs panel, Bayer)) EUB0000725a MMP12
Chain of Macrophage metalloelastase (P39900 whole entry): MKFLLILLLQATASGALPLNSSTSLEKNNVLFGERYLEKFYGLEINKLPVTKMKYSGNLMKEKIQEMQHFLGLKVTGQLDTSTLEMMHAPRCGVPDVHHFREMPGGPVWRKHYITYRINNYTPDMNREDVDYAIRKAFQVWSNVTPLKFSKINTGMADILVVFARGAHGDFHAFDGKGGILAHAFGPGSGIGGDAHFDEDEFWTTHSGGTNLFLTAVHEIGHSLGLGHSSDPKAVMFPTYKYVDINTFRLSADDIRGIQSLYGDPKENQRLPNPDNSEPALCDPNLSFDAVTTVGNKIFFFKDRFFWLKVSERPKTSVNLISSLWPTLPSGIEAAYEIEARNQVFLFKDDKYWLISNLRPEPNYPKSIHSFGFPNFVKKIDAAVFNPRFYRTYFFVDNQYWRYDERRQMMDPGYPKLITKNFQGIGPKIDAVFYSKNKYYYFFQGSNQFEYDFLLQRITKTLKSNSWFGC

[9] = molecular target: Uncharacterized serine/threonine-protein kinase SBK3 (Homo sapiens) (UniProt P0C264); assay: Selectivity interaction (KinomeScan (DiscoverX)) EUB0000725a SBK3; conditions: at 10 µM
[10] = molecular target: 72 kDa type IV collagenase (Homo sapiens, UniProt P08253); assay: Selectivity interaction (MMPs panel (Panlabs panel, Bayer)) EUB0000725a MMP2
Chain of 72 kDa type IV collagenase (P08253 whole entry): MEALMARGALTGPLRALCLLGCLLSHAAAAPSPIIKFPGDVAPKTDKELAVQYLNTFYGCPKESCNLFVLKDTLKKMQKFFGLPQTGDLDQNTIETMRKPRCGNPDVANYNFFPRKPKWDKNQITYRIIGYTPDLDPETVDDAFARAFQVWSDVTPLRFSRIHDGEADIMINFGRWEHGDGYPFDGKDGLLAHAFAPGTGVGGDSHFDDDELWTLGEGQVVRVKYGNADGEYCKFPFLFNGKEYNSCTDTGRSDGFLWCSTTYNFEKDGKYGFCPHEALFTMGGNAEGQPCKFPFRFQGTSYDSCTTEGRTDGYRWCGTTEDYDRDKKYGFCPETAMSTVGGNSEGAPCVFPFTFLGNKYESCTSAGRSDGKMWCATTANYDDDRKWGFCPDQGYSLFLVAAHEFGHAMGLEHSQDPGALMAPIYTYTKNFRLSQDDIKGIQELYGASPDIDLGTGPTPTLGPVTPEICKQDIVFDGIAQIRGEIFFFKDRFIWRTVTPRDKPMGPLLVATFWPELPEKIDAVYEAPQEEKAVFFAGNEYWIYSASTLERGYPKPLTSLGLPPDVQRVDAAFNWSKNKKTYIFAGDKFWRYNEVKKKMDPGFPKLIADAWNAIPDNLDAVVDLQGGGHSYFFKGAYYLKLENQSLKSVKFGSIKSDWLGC

D(2) dopamine receptor = D(2) dopamine receptor (Homo sapiens, UniProt P14416); assay: Selectivity interaction (GPCR panel (PDSP screen)) EUB0000725a DRD2; conditions: at 10 µM
Stromelysin-1 = Stromelysin-1 (Homo sapiens, UniProt P08254); assay: Selectivity interaction (MMPs panel (Panlabs panel, Bayer)) EUB0000725a MMP3
Chain of Stromelysin-1 (P08254 whole entry): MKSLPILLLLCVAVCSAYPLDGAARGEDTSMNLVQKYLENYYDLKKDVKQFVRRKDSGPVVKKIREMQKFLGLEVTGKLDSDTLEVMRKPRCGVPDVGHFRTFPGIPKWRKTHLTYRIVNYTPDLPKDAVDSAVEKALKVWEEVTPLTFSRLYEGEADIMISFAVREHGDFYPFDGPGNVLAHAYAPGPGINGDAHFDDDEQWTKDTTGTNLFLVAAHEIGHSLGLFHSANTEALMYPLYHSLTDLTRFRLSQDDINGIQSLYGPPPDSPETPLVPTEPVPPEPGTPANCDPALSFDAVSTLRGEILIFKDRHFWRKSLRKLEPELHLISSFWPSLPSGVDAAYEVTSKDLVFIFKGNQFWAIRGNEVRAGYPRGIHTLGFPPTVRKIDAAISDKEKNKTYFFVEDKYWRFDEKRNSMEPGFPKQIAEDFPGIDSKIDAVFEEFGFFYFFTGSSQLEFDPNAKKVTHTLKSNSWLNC

[11] = molecular target: T1, Gamma-aminobutyric acid receptor subunit alpha-1; assay: Selectivity interaction (GPCR panel (PDSP screen)) EUB0000587a GABRA1

IC50 (Kallikrein-4): > 30 µM
% of control [1]: 45.5%
IC50 (Kallikrein-1): > 30 µM
IC50 (Coagulation factor XI): > 30 µM
IC50 (Serine protease 1): > 30 µM
IC50 (Plasma kallikrein): > 30 µM
IC50 (Cathepsin G): > 30 µM
IC50 (Coagulation factor VII): > 30 µM
IC50 (Dipeptidyl peptidase 4): > 30 µM
IC50 (Kallikrein-12): > 30 µM
IC50 (Chymotrypsin-C): > 30 µM
IC50 (Kallikrein-5): > 30 µM
IC50 (Prolyl endopeptidase FAP): > 30 µM
IC50 (Plasminogen): > 30 µM
IC50 (Chymase): > 30 µM
% of control [2]: 48.7%
IC50 (Dipeptidyl peptidase 2): > 30 µM
IC50 [3]: > 30 µM
IC50 (Coagulation factor IX): > 30 µM
IC50 (Kallikrein-7): > 30 µM
Compound: CC(=O)C1=C(C)N(c2cccc(C(F)(F)F)c2)C(=O)N[C@@H]1c1ccc(C#N)nc1 [BAY-678]

Ki [4]: 1.53 µM
Compound: CCNC(=O)c1cc2c(N3CCOC[C@@H]3C)ccnc2[nH]1

IC50 (Collagenase 3): > 10 µM
IC50 (Neutrophil collagenase): > 10 µM
% of control [5]: 34%
IC50 [6]: > 10 µM
IC50 (Matrilysin): > 10 µM
IC50 [7]: > 10 µM
IC50 (Interstitial collagenase): > 10 µM
IC50 [8]: > 10 µM
% of control [9]: 43%
IC50 [10]: > 10 µM
% of inhibition (D(2) dopamine receptor): 30%
IC50 (Stromelysin-1): > 10 µM
Compound: O=C(O)[C@@H]1[C@@H](Cn2nnc3ccccc3c2=O)CC[C@H]1C(=O)c1ccc(OCCC2CCOCC2)cc1 [BAY-694]

Ki [11]: 0.224 µM
Compound: CCNC(=O)c1cc2c(N3CCOC[C@@H]3C)ccnc2n1C
